According to patent publication US6673778B1, “Enzyme inhibitors for metabolic redirection” (The Board of Regents of the University of Nebraska, priority 1996, dated 2004):
In the oligonucleotide strings, read from the 5' end, every base follows the letter of its sugar. An asterisk marks phosphorothioate; unmarked linkages are phosphodiester. Other units and linkages are bracketed, terminal groups are in braces. A string of capitals states the bases alone. d = 2'-deoxy (DNA)

Key:
rat CYP3A2 = assay: Midazolam sleep time in rats; assay type: in vivo; conditions: MZ 50 mg/kg i.p.
Description: Male Sprague-Dawley rats (Sasco, Omaha) weighing between 210 to 290 grams were used for all studies. The animals were exposed to 12 hour light/dark cycle and fed Purina rat chow and tap water ad libitum.
Sleep time was measured after i.p. injection of 50 mg/kg MZ (Hoffman-La Roche, Nutley, N.J.) at 0 (day 1), 24 (day 2) and […]. The volume of the injection was from 2.0 to 2.4 ml/rat. […] […] Control rats received saline only. Total volume injection was 0.1 ml in saline.

CYP3A2 = assay: Erythromycin demethylation (ED) in liver microsomes; assay type: in vivo, rat
Description: Sleep time was measured after i.p. injection of 50 mg/kg MZ (Hoffman-La Roche, Nutley, N.J.) at 0 (day 1), 24 (day 2) and 48 h (day 4). The volume of the injection was from 2.0 to 2.4 ml/rat. […] The rats were treated with 0.25, 0.50 or 1.00 mg antisense ODN i.p. immediately after the animal had regained its righting reflex determined at 0 and 24 h. Control rats received saline only. Total volume injection was 0.1 ml in saline.
Microsomes were prepared, as described by Franklin and Estabrook (cited above) for determination of enzyme level and activity.
Erythromycin demethylation (ED) was used a measure of CYP3A2 enzymatic activity (Gonzalez, Pharmacol. Rev. 40:243-87, 1989). Activity was recorded as micromoles of formaldehyde per milligram of protein per minute.

Substance | MZ ST (midazolam sleep time) (rat CYP3A2; 1000 μg/day i.p.) [min] | ED (erythromycin demethylase activity) (CYP3A2; 1000 μg/day i.p.) [μmol HCOH/mg/min] | MZ ST (midazolam sleep time) (rat CYP3A2; 100 μg/day i.p.) [min] | ED (erythromycin demethylase activity) (CYP3A2; 100 μg/day i.p.) [μmol HCOH/mg/min]
ATGMYC/PS: PS DNA myc control, SEQ ID NO: 44, 5′-ACGTTGAGGGGCAUCGTCC-3′ (DNA, all phosphorothioate, T or U not given here) | 22.8 ± 1.3 | 113 |  | 
AUGM:YC/PMO: PMO myc control, SEQ ID NO: 44, 5′-ACGUUGAGGGGCAUCGUCC-3′ (all phosphorodiamidate morpholino (PMO), T or U not given here) |  |  | 20.6 ± 0.6 | 110
REV3A2/PMO: PMO reverse control, SEQ ID NO: 43, 5′-UACCUCGACGAAAGUCGAGAGU-3′ (all phosphorodiamidate morpholino (PMO), T or U not given here) |  |  | 20.3 ± 1.3 | 99
REV3A2/PS: PS DNA reverse control, SEQ ID NO: 43, 5′-TACCTCGACGAAAGTCGAGAGT-3′ (antisense dT*dA*dC*dC*dT*dC*dG*dA*dC*dG*dA*dA*dA*dG*dT*dC*dG*dA*dG*dA*dG*dT) | 22.4 ± 0.6 | 91 |  | 
